# Measurements taken from PubChem BioAssay (NCI).
#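 Protocol summary: plate cells (96-well), add compound at 5 concentrations, incubate 48 h, interpolate endpoints linearly. At the TGI there is no net growth.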
# Tests used:
# Test in all cases: NCI-60 cell line screen, 48 h
# [1] = system: SK-MEL-5 melanoma
# [2] = system: M19-MEL melanoma
# [3] = system: U251 CNS
# [4] = system: NCI-H226 lung
# [5] = system: KM20L2 colon
# [6] = system: A498 renal
# [7] = system: RXF-631 renal
# [8] = system: HOP-18 NSCLC
# [9] = system: UACC-62 melanoma
# [10] = system: DLD-1 colon
# [11] = system: MOLT-4 leukemia
# [12] = system: CAKI-1 renal
# [13] = system: M14 melanoma
# [14] = system: HL-60(TB) leukemia
# [15] = system: LOX IMVI melanoma
# [16] = system: NCI-H460 lung
# [17] = system: KM12 colon
# [18] = system: RPMI-8226 leukemia
# [19] = system: SF-539 CNS
# [20] = system: K-562 leukemia
# [21] = system: OVCAR-5 ovarian
# [22] = system: IGROV1 ovarian
# [23] = system: HOP-62 NSCLC
# [24] = system: ACHN renal
# [25] = system: UO-31 renal
# [26] = system: DMS 273 small cell lung
# [27] = system: UACC-257 melanoma
# [28] = system: OVCAR-3 ovarian
# [29] = system: HT29 colon
# [30] = system: EKVX NSCLC
# [31] = system: LXFL 529 NSCLC
# [32] = system: A549 NSCLC
# [33] = system: SNB-19 CNS
# [34] = system: NCI-H522 lung
# [35] = system: SK-MEL-2 melanoma
# [36] = system: COLO 205 colon
# [37] = system: SNB-78 CNS
# [38] = system: SK-OV-3 ovarian
# [39] = system: NCI-H23 lung
# [40] = system: CCRF-CEM leukemia
# [41] = system: OVCAR-4 ovarian
# [42] = system: MALME-3M melanoma
# [43] = system: SW-620 colon
# [44] = system: TK-10 renal
# [45] = system: SK-MEL-28 melanoma
# [46] = system: HCT-15 colon
# [47] = system: SF-268 CNS
# [48] = system: HCC-2998 colon
# [49] = system: HOP-92 NSCLC
# [50] = system: XF 498 CNS
# [51] = system: 786-0 renal
# [52] = system: SF-295 CNS
# [53] = system: DMS 114 small cell lung
# [54] = system: RXF 393 renal
# [55] = system: OVCAR-8 ovarian
# [56] = system: SN12C renal
# [57] = system: HCT-116 colon
# [58] = system: SNB-75 CNS
# [59] = system: SR leukemia
smiles,measurement,setting,value
C=C1CC2(CCS(=O)(=O)c3ccccc32)OC1=O (stereo not drawn),TGI,[1],27 µM
same,TGI,[2],37.2 µM
same,TGI,[3],26 µM
same,TGI,[4],28.9 µM
same,TGI,[5],28.6 µM
same,TGI,[6],31.5 µM
same,TGI,[7],43.4 µM
same,TGI,[8],14.7 µM
same,TGI,[9],31.6 µM
same,TGI,[10],25.9 µM
same,TGI,[11],15 µM
same,TGI,[12],3.3 µM
same,TGI,[13],20.3 µM
same,TGI,[14],8.64 µM
same,TGI,[15],33.3 µM
same,TGI,[16],35.3 µM
same,TGI,[17],37.8 µM
same,TGI,[18],10.6 µM
same,TGI,[19],18.1 µM
same,TGI,[20],34.4 µM
same,TGI,[21],27.3 µM
same,TGI,[22],34.1 µM
same,TGI,[23],46.8 µM
same,TGI,[24],23.7 µM
same,TGI,[25],26 µM
same,TGI,[26],30.5 µM
same,TGI,[27],32.1 µM
same,TGI,[28],21 µM
same,TGI,[29],31.7 µM
same,TGI,[30],33.1 µM
same,TGI,[31],15.9 µM
same,TGI,[32],35.2 µM
same,TGI,[33],22.8 µM
same,TGI,[34],11.4 µM
same,TGI,[35],23.6 µM
same,TGI,[36],9.33 µM
same,TGI,[37],33.6 µM
same,TGI,[38],44.1 µM
same,TGI,[39],27.7 µM
same,TGI,[40],11 µM
same,TGI,[41],26.7 µM
same,TGI,[42],26.3 µM
same,TGI,[43],11.4 µM
same,TGI,[44],26.7 µM
same,TGI,[45],27.8 µM
same,TGI,[46],27.6 µM
same,TGI,[47],38.4 µM
same,TGI,[48],37.1 µM
same,TGI,[49],14.2 µM
same,TGI,[50],26.1 µM
same,TGI,[51],15.7 µM
same,TGI,[52],45 µM
same,TGI,[53],14.2 µM
CCCCCCCCCCCCC(Br)C(C)=O (stereo not drawn),TGI,[1],> 100 µM
same,TGI,[2],> 100 µM
same,TGI,[3],> 100 µM
same,TGI,[4],> 100 µM
same,TGI,[5],> 100 µM
same,TGI,[6],> 100 µM
same,TGI,[7],> 100 µM
same,TGI,[8],> 100 µM
same,TGI,[9],> 100 µM
same,TGI,[10],> 100 µM
same,TGI,[13],> 100 µM
same,TGI,[14],> 100 µM
same,TGI,[15],> 100 µM
same,TGI,[16],> 100 µM
same,TGI,[54],> 100 µM
same,TGI,[17],> 100 µM
same,TGI,[19],> 100 µM
same,TGI,[55],> 100 µM
same,TGI,[56],> 100 µM
same,TGI,[21],> 100 µM
same,TGI,[22],> 100 µM
same,TGI,[23],> 100 µM
same,TGI,[24],> 100 µM
same,TGI,[25],> 100 µM
same,TGI,[26],> 100 µM
same,TGI,[27],> 100 µM
same,TGI,[28],> 100 µM
same,TGI,[29],> 100 µM
same,TGI,[30],> 100 µM
same,TGI,[31],> 100 µM
same,TGI,[32],> 100 µM
same,TGI,[33],> 100 µM
same,TGI,[34],> 100 µM
same,TGI,[35],> 100 µM
same,TGI,[36],> 100 µM
same,TGI,[37],> 100 µM
same,TGI,[38],> 100 µM
same,TGI,[39],> 100 µM
same,TGI,[40],> 100 µM
same,TGI,[41],> 100 µM
same,TGI,[42],> 100 µM
same,TGI,[43],> 100 µM
same,TGI,[44],> 100 µM
same,TGI,[45],> 100 µM
same,TGI,[46],> 100 µM
same,TGI,[47],> 100 µM
same,TGI,[48],> 100 µM
same,TGI,[49],> 100 µM
same,TGI,[50],> 100 µM
same,TGI,[57],> 100 µM
same,TGI,[51],> 100 µM
same,TGI,[52],> 100 µM
same,TGI,[53],> 100 µM
Cc1ccc(-c2nnc3s/c(=C\c4ccc(N(C)C)cc4)c(=O)n23)cc1,TGI,[58],> 100 µM
same,TGI,[1],> 100 µM
same,TGI,[2],> 100 µM
same,TGI,[3],> 100 µM
same,TGI,[4],> 100 µM
same,TGI,[5],> 100 µM
same,TGI,[6],> 100 µM
same,TGI,[7],> 100 µM
same,TGI,[8],> 100 µM
same,TGI,[9],> 100 µM
same,TGI,[10],> 100 µM
same,TGI,[11],> 100 µM
same,TGI,[12],> 100 µM
same,TGI,[13],> 100 µM
same,TGI,[14],> 100 µM
same,TGI,[15],> 100 µM
same,TGI,[16],> 100 µM
same,TGI,[54],> 100 µM
same,TGI,[17],> 100 µM
same,TGI,[18],> 100 µM
same,TGI,[19],> 100 µM
same,TGI,[55],> 100 µM
same,TGI,[56],> 100 µM
same,TGI,[21],> 100 µM
same,TGI,[22],> 100 µM
same,TGI,[23],> 100 µM
same,TGI,[24],> 100 µM
same,TGI,[25],> 100 µM
same,TGI,[26],> 100 µM
same,TGI,[27],77.5 µM
same,TGI,[28],> 100 µM
same,TGI,[30],> 100 µM
same,TGI,[31],> 100 µM
same,TGI,[32],> 100 µM
same,TGI,[33],> 100 µM
same,TGI,[34],> 100 µM
same,TGI,[35],> 100 µM
same,TGI,[36],> 100 µM
same,TGI,[37],> 100 µM
same,TGI,[38],> 100 µM
same,TGI,[39],> 100 µM
same,TGI,[40],> 100 µM
same,TGI,[41],> 100 µM
same,TGI,[42],> 100 µM
same,TGI,[43],> 100 µM
same,TGI,[44],> 100 µM
same,TGI,[45],> 100 µM
same,TGI,[47],> 100 µM
same,TGI,[48],> 100 µM
same,TGI,[49],> 100 µM
same,TGI,[50],> 100 µM
same,TGI,[57],> 100 µM
same,TGI,[51],> 100 µM
same,TGI,[52],> 100 µM
same,TGI,[53],> 100 µM
O=C(CC1(O)C(=O)Nc2c(Cl)cc(Cl)cc21)c1ccc(F)cc1 (stereo not drawn),TGI,[58],63.8 µM
same,TGI,[2],34 µM
same,TGI,[3],97.1 µM
same,TGI,[4],> 100 µM
same,TGI,[5],> 100 µM
same,TGI,[7],> 100 µM
same,TGI,[8],> 100 µM
same,TGI,[9],> 100 µM
same,TGI,[10],> 100 µM
same,TGI,[12],> 100 µM
same,TGI,[13],> 100 µM
same,TGI,[15],66.5 µM
same,TGI,[16],> 100 µM
same,TGI,[54],88.3 µM
same,TGI,[17],> 100 µM
same,TGI,[18],61.4 µM
same,TGI,[19],57.4 µM
same,TGI,[55],47.6 µM
same,TGI,[56],> 100 µM
same,TGI,[21],> 100 µM
same,TGI,[22],67.6 µM
same,TGI,[23],> 100 µM
same,TGI,[24],> 100 µM
same,TGI,[25],> 100 µM
same,TGI,[26],> 100 µM
same,TGI,[27],65 µM
same,TGI,[28],68.6 µM
same,TGI,[29],70.1 µM
same,TGI,[30],> 100 µM
same,TGI,[31],> 100 µM
same,TGI,[32],> 100 µM
same,TGI,[33],> 100 µM
same,TGI,[35],> 100 µM
same,TGI,[36],43 µM
same,TGI,[37],> 100 µM
same,TGI,[38],> 100 µM
same,TGI,[39],70.9 µM
same,TGI,[41],52.6 µM
same,TGI,[42],> 100 µM
same,TGI,[43],> 100 µM
same,TGI,[44],> 100 µM
same,TGI,[45],> 100 µM
same,TGI,[46],> 100 µM
same,TGI,[47],> 100 µM
same,TGI,[48],> 100 µM
same,TGI,[49],> 100 µM
same,TGI,[50],39.9 µM
same,TGI,[57],> 100 µM
same,TGI,[59],57 µM
same,TGI,[51],38.9 µM
same,TGI,[52],> 100 µM
same,TGI,[53],58.9 µM
